A word on the Ki: it is the dissociation constant of the complex between target and ligand, obtained from inhibition or displacement.

Consider 14 compounds from patent US8324250B2 (Hoffmann-La Roche Inc., priority 2009, dated 2012).

For assay [1] the following is noted: phase II trial, cited from earlier work.
The target of assay [2] is T1, recombinant human NK3 receptor (Homo sapiens, UniProt P29371).
T1 construct: expressed in transfected cells; host or cells: HEK293 cells (transient expression), membranes
T1 sequence (P29371 1-465): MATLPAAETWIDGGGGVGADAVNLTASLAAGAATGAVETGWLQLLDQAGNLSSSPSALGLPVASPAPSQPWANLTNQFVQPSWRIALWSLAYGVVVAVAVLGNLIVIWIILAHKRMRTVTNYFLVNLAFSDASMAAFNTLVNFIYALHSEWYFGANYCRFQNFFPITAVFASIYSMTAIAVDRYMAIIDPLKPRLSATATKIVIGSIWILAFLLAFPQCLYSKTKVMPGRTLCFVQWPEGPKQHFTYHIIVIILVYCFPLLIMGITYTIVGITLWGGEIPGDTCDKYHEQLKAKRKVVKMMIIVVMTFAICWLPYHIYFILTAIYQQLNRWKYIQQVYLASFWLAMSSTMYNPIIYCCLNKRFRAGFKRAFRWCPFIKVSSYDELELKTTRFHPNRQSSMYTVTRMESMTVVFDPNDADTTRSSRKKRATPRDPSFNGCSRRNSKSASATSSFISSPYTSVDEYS
In words: [3H]SR142801 competition binding assay. The following applies: membranes from HEK293 cells transiently expressing recombinant human NK3 receptor; [3H]SR142801 radioligand; 75 min at RT; Ki by Cheng-Prussoff; read-out: Data Ki (hNK-3 receptor affinity). In a few lines:
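Membranes from HEK293 cells transiently expressing the receptor, 5 μg protein/well, in 50 mM Tris-HCl pH 7.4 with 4 mM MnCl2, 1 μM phosphoramidon, 0.1% BSA; nonspecific binding defined with 10 μM SB222200. Filtration and scintillation counting; IC50 from Hill fit, Ki by Cheng-Prussoff using saturation-derived KD, duplicates.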

Regarding `CC(=O)N(C)C1(c2ccccc2)CCN(CCC[C@]2(c3ccc(Cl)c(Cl)c3)CCCN(C(=O)c3ccccc3)C2)CC1` [SR 142,801, Osanetant], the “activity in the treatment of negative symptoms of schizophrenia” value in assay [1] (negative symptoms (depression, anhedonia, social isolation, memory and attention deficits)) is “inactive”. In assay [1] (positive symptoms (altered behaviour, delusion, hallucinations, extreme emotions, excited motor activity, incoherent speech)), the “activity on positive symptoms of schizophrenia” value was “active”. For `CC[C@H](NC(=O)C1(c2ccccc2)CCN(C(=O)c2ccc(-c3nc(C)no3)cc2)CC1)c1ccccc1` [Example 83, 1-[4-(3-Methyl-[1,2,4]oxa-diazol-5-yl)-benzoyl]-4-phenyl-piperidine 4-carboxylic acid ((S)-1-phenyl-propyl)-amide], in assay [2], the Ki came to 1.1 nM. Same read-out and setting: with `CC(C)C(NC(=O)C1(c2ccc(F)cc2)CCN(C(=O)c2ccc(N3CCCCC3=O)cc2)CC1)c1ccc(F)cc1` (stereo not drawn) [Example 171, 4-(4-Fluoro-phenyl)-1-[4-(2-oxo-piperidin-1-yl)-benzoyl]-piperidine-4-carboxylic acid [1-(4-fluoro-phenyl)-2-methyl-propyl]-amide] the figure was 54 nM. Still for that read-out and setting: with `C[C@H](NC(=O)C1(c2ccccc2)CCN(C(=O)c2ccc(-c3ccccc3)cn2)CC1)c1ccccc1` [Example 38, 4-Phenyl-1-(5-phenyl-pyridine-2-carbonyl)-piperidine-4-carboxylic acid ((S)-1-phenyl-ethyl)-amide] the figure was 21.4 nM. Same read-out and setting: for `C[C@H](NC(=O)C1(c2ccccc2)CCN(C(=O)c2ccc(-n3cnnn3)cc2)CC1)c1ccccc1` [Example 40, 4-Phenyl-1-(4-tetrazol-1-yl-benzoyl)-piperidine-4-carboxylic acid ((S)-1-phenyl-ethyl)-amide] the value was 28.5 nM; for `Cc1nc(-c2ccc(C(=O)N3CCC(C(=O)NC(c4ccc(F)cc4)C(F)(F)F)(c4ccc(F)cc4)CC3)cc2)no1` (stereo not drawn) [Example 165, 4-(4-Fluoro-phenyl)-1-[4-(5-methyl-[1,2,4]oxadiazol-3-yl)-benzoyl]-piperidne-4-carboxylic acid [2,2,2-trifluoro-1-(4-fluoro-phenyl)-ethyl]-amide], 66 nM. As for `C[C@H](NC(=O)C1(c2ccccc2)CCN(C(=O)c2ccc(-n3cncn3)cc2)CC1)c1ccccc1` [Example 34, 4-Phenyl-1-(4-[1,2,4]triazo 1-1-yl-benzoyl)-piperidine-4-carboxylic acid ((S)-1-phenyl-ethyl)-amide], in assay [2], the Ki amounted to 98.5 nM. `O=C(c1ccc(-c2ccc(F)cc2)cc1)N1CCC(C(=O)NC(CC2CC2)c2ccccc2)(c2ccc(F)cc2)CC1` (stereo not drawn) [Example 148, 1-(4′-Fluoro-biphenyl-4-carbonyl)-4-(4-fluoro-phenyl)-piperidine-4-carboxylic acid (2-cyclopropyl-1-phenyl-ethyl)-amide]: the Ki in assay [2] turned out to be 5.8 nM.

`C[C@H](NC(=O)C1(c2ccccc2)CCN(C(=O)c2ccc(-c3cnco3)cc2)CC1)c1ccccc1` [Example 22, 1-(4-Oxazol-5-yl-benzoyl)-4-phenyl-piperidine-4-carboxylic acid ((S)-1-phenyl-ethyl)-amide]: the Ki in assay [2] turned out to be 65.8 nM.

As for `Cc1nc(-c2ccc(C(=O)N3CCC(C(=O)N[C@@H](C)c4cccc(F)c4)(c4ccc(F)cc4)CC3)cc2)no1` [Example 167, 4-(4-Fluoro-phenyl)-1-[4-(5-methyl-[1,2,4]oxadiazol-3-yl)-benzoyl]-piperidine-4-carboxylic acid [(S)-1-(3-fluoro-phenyl)-ethyl]-amide], the Ki in assay [2] amounted to 17 nM. Same read-out and setting: for `C[C@H](NC(=O)C1(c2ccccc2)CCN(C(=O)c2ccc(-c3ccncc3)cc2)CC1)c1ccccc1` [Example 7, 4-Phenyl-1-(4-pyndin-4-yl-benzoyl)-piperidine-4-carboxylic acid ((S)-1-phenyl-ethyl)-amide] the value was 39.6 nM; for `C[C@H](NC(=O)C1(c2ccccc2)CCN(C(=O)c2ccc(-c3ccc(C(F)(F)F)cc3)cc2)CC1)c1ccccc1` [Example 5, 4-Phenyl-1-(4′-trifluoromethyl-biphenyl-4-carbonyl)-piperidine-4-carboxylic acid ((S)-1-phenyl-ethyl)-amide], 23.9 nM; for `C[C@H](NC(=O)C1(c2ccc(F)cc2)CCN(C(=O)C2CCN(c3ccc(C#N)cn3)CC2)CC1)c1ccc(F)cc1` [Example 156, 1-(5′-Cyano-3,4,5,6-tetrahydro-2H-[1,2′]bipyridinyl-4-carbonyl)-4-(4-fluoro-phenyl)-piperidine-4-carboxylic acid [(S)-1-(4-fluoro-phenyl)-ethyl]-amide], 87 nM.

As to `C[C@H](NC(=O)C1(c2ccccc2)CCN(C(=O)c2ccc(-c3nnn(C)n3)cc2)CC1)c1ccccc1` [Example 72, 1-[4-(2-Methyl-2H-tetrazol-5-yl)-benzoyl]-4-phenyl-piperidine-4-carboxylic acid ((S)-1-phenyl-ethyl)-amide], in assay [2], the Ki was found to be 15.8 nM.
